According to US20120022048A1, “Anti-proliferative substituted pyrazolo[3,4-d]pyrimidines derivatives (SPP) to inhibit immune activation, virus replication and tumor growth” (priority 2010, published 2012):

Columns and labels:
Format in all cases: cell-based
[1] = system: primary human CD4 T-lymphocytes; test: Cell hyperproliferation in primary T cells (CFSE staining, mitotic index); conditions: for mitotic index %: % of not treated control (100%), day 10, HU 100 μM; for mitotic index % / anti-proliferative activity (in words): SPPs 10 μM, Imatinib 10 μM; for anti-proliferative activity (in words): compared with HU 100 μM, HU+ddI or untreated control; for Anti-proliferative capacity: class symbol, Table 6
Description: We built up an experimental model using primary T cells to study the activity of the compounds on induced hyperproliferation of cells, which is a characteristic of both chronic viral diseases and cancer including HIV and leukemia.
(§1) Unstimulated (quiescent/resting, day 0 to 5) primary human CD4 T-lymphocytes were obtained by magnetic bead separation from healthy, normal donors. After five days in culture, cells were activated with PHA (5 μg/ml) to induce hyperproliferation then, at day 7, IL-2 (20 U/ml) was added (stimulated, day 6 to 10). All available compounds were tested at a concentration of 10 μM. […] At day 10, cells were harvested. Proliferation of T cells, cultured as described above, was studied by staining the cells with carboxyfluorescein diacetate-succinimidyl ester (CFSE) at day 0 (immediately after infection). For data analysis, the mitotic index (M) was used, calculating the sum of mitotic events at each proliferation cycle. To extract a relative number, M was normalized to the total number of cells acquired using the equation M=Σ[(Xn(T)−Xn(T)/2^n)], that gives the number of mitotic events from the experimentally obtained values of the proportion of T cells under each division peak n (Xn) and the total T cells (T). To study the effect of the compounds on apoptosis T cells were cultured as described above and at day 10 cells were stained with Annexin V and 7-AAD, in order to determine the percentage of total apoptotic events.

[2] = system: primary human CD4 T-lymphocytes; test: Apoptosis in primary CD4 T cells (Annexin V and 7-AAD staining); conditions: SPPs 10 μM; for apoptotic effect (in words): compared with HU 100 μM, HU+ddI or untreated control; for apoptosis %: total apoptotic events compared to untreated control, day 10, Imatinib 10 μM, HU 100 μM, ddI 2 μM
Description: as §1
We determined the capacity of the compounds to affect the percentages of apoptotic events after 10 days of treatment in primary CD4 T cells.

[3] = system: HIV-1 NL 4.3; test: HIV-1 replication in quiescent CD4 T cells (p24 Ag ELISA); conditions: for anti-HIV activity in quiescent cells (in words) / HIV quiescent cells (percentage p24 compared to the untreated control): SPPs 10 μM; for anti-HIV activity in quiescent cells (in words): compared with HU 100 μM, HU+ddI or untreated control; for Antiviral activity in quiescent cells: class symbol, Table 6; for HIV quiescent cells (percentage p24 compared to the untreated control): quiescent CD4 T cells, day 10, HU 100 μM, HU 100 μM+ddI 2 μM
Description: Unstimulated (quiescent/resting, day 0 to 5) human CD4 T-lymphocytes, obtained by magnetic bead separation from healthy, normal donors, were infected with HIV-1 NL 4.3. After five days in culture, cells were stimulated with PHA (5 μg/ml) to induce proliferation, and then, at day 7, IL-2 (20 U/ml) was added (stimulated, day 6 to 10). All available compounds were tested at a concentration of 10 μM. HU 100 μM and HU 100 μM+ddI 2 μM were also employed as comparators and the negative control was left untreated. At day 10, cells and supernatants were harvested and HIV-1 p24 Ag was measured by ELISA. HIV replication was expressed as percentage p24 compared to the untreated control.

[4] = system: HIV-1 NL 4.3; test: HIV-1 replication in activated T cells (PBMC, p24 Ag ELISA); conditions: for anti-HIV activity in activated T cells (in words): SPPs 10 μM, compared with HU 100 μM, HU+ddI or untreated control; for HIV activated cells (% p24 compared to not treated control): activated T cells, 7 days, SPPs and Imatinib 10 μM, HU 100 μM, ddI 2 μM; for Antiviral activity in activated cells: class symbol, Table 6
Description: The experimental setup described below allows us to detect direct antiviral activity of a compound.
Human PBMC, obtained from healthy, normal donors, were stimulated for two days with PHA 5 μg/ml. Then cells were infected with HIV-1 NL 4.3, IL-2 was added (20 U/ml), cells were plated (10^5 cells per well in 200 μl) and drug treatment started. […] The control was left untreated. After 7 days of incubation at 37° C. supernatants were harvested and HIV-1 p24 Ag was measured by ELISA.

SMILES | mitotic index % [1] [%] | anti-proliferative activity (in words) [1] | Anti-proliferative capacity [1] | apoptotic effect (in words) [2] | apoptosis % [2] [%] | anti-HIV activity in quiescent cells (in words) [3] | Antiviral activity in quiescent cells [3] | HIV quiescent cells (percentage p24 compared to the untreated control) [3] [%] | anti-HIV activity in activated T cells (in words) [4] | HIV activated cells (% p24 compared to not treated control) [4] [%] | Antiviral activity in activated cells [4] | inhibition at 10 µM ([1]; Homo sapiens, T-lymphocyte, read-out: decrease/inhibition of cell proliferation compared to not treated control) [%]
CCSc1nc(Nc2cccc(Cl)c2)c2cnn(CC(Cl)c3ccccc3)c2n1 (stereo not drawn) [VS1-027] | 2.4 ± 1.5 | good anti-proliferative capacity (superior to 100 μM HU) | +++ (excellent (+++, greater than 70% activity)) | no more apoptotic than HU | 90.1 ± 33.8 | good anti-HIV activity | +++ (excellent (+++, greater than 70% activity)) | 2.7 ± 1.6 | good anti-HIV activity | 12.0 ± 9.5 | +++ (excellent (+++, greater than 70% activity)) | 
C(=Cn1ncc2c(NC3CCCCC3)ncnc21)c1ccccc1 [VS1-012] | 68.8 ± 10.7 |  |  |  | 46.3 ± 9.1 |  |  | 10.9 ± 5.0 | better anti-HIV activity than HU | 18.6 ± 2.9 |  | 
CSc1nc(NCc2ccccc2)c2cnn(C=Cc3ccccc3)c2n1 [VS1-019] | 81.3 ± 18.9 | poor activity |  |  | 94.0 ± 11.2 |  |  | 46.7 ± 31.3 | poor activity | 89.3 ± 25.5 |  | 
CCCCNc1ncnc2c1cnn2C=Cc1ccccc1 [VS1-021] | 86.2 ± 13.7 | poor activity |  |  | 108.0 ± 21.7 |  |  | 115.4 ± 40.4 | poor activity | 97.2 ± 30.3 |  | 
CCCCNc1ncnc2c1cnn2CC(Cl)c1ccccc1 (stereo not drawn) [VS1-008] | 8.1 ± 1.8 | good activity against proliferation (even better than HU though 10 times less concentrated) | +++ (excellent (+++, greater than 70% activity)) | did not induce apoptosis | 115.8 ± 39.4 | good activity | +++ (excellent (+++, greater than 70% activity)) | 11.2 ± 7.7 | good activity | 11.8 ± 5.6 | +++ (excellent (+++, greater than 70% activity)) | 
BrC(Cn1ncc2c(NC3CCCCC3)ncnc21)c1ccccc1 (stereo not drawn) [VS1-007] | 87.0 | poor performance |  |  |  |  |  | 75.7 ± 18.8 | no effect on HIV replication | 70.6 ± 24.3 |  | 
BrC(Cn1ncc2c(N3CCCCCC3)ncnc21)c1ccccc1 (stereo not drawn) [VS1-018] | 42.4 ± 21.8 | poor activity |  | proapoptotic | 176.0 ± 22.5 |  |  | 11.5 ± 3.2 | poor activity | 93.6 ± 28.3 |  | 
Cc1ccc(NC(=O)c2ccc(CN3CCN(C)CC3)cc2)cc1Nc1nccc(-c2cccnc2)n1 [Imatinib, reference compound] |  |  |  | no significant increases |  |  |  |  | comparable antiviral capacity |  |  | 62
